In brackets after ≈: the same amount, converted by molar mass.
What was measured:
Type in all cases: physicochemical
[1] = Solubility of crystalline Form I and Form II in various media
[2] = Bulk-state stability and thermal conversion of crystalline forms; conditions: one week when stored at 50° C., 50° C./75% RH and 80° C.
[3] = Slurry competition studies of crystalline forms in 2-propanol; conditions: 2-propanol at room temperature
[4] = Fasted state simulated intestinal fluid [pH 6.5]
[5] = Fed state simulated intestinal fluid [pH 5.8]

Row | Structure (SMILES) | Solubility [1, 4] | Solubility [1, 5] | Solubility ([1]; Simulated gastric fluid [pH 2]) | Solubility ([1]; Water) | Solubility ([1]; pH 1 (0.1N HCl)) | Solubility ([1]; pH 3 citrate buffer) | Solubility ([1]; pH 4.65 acetate buffer) | Solubility ([1]; pH 6.8 phosphate buffer) | chemical and physical stability in bulk state [2] | relative thermodynamic stability (slurry competition) [3]
1 | CCOC(=O)[C@H](C)N[P@@]1(=O)OC[C@H]2O[C@@H](n3cnc4c(OCC)nc(N)nc43)[C@](C)(F)[C@@H]2O1 [Form I, (S)-ethyl 2-(((2R,4aR,6R,7R,7aR)-6-(2-amino-6-ethoxy-9H-purin-9-yl)-7-fluoro-7-methyl-2-oxidotetrahydro-4H-furo[3,2-d][1,3,2]dioxaphosphinin-2-yl)amino)propanoate] | 0.632 [6.36] mg/ml | 0.665 [5.80] mg/ml | 0.681 [2.11] mg/ml | 0.799 [3.82] mg/ml | 1.249 [1.39] mg/ml | 0.816 [3.04] mg/ml | 0.687 [4.67] mg/ml | 0.794 [6.70] mg/ml | chemically and physically stable | 
2 | CCOC(=O)[C@H](C)N[P@@]1(=O)OC[C@H]2O[C@@H](n3cnc4c(OCC)nc(N)nc43)[C@](C)(F)[C@@H]2O1 [Form II, (S)-ethyl 2-(((2R,4aR,6R,7R,7aR)-6-(2-amino-6-ethoxy-9H-purin-9-yl)-7-fluoro-7-methyl-2-oxidotetrahydro-4H-furo[3,2-d][1,3,2]dioxaphosphinin-2-yl)amino)propanoate] | 0.0888 mg/mL (≈ 182 µM) | 0.0995 mg/mL (≈ 204 µM) | 0.150 mg/mL (≈ 307 µM) | 0.0676 mg/mL (≈ 138 µM) | 0.246 mg/mL (≈ 504 µM) | 0.0740 mg/mL (≈ 152 µM) | 0.0557 mg/mL (≈ 114 µM) | 0.0551 mg/mL (≈ 113 µM) | chemically and physically stable | thermodynamically more stable than Form I and III

From patent publication US20140205566A1, “CYCLIC NUCLEUOSIDE DERIVATIVES AND USES THEREOF” (NOVARTIS AG, priority 2012, published 2014)
